Data reported in ChEMBL document CHEMBL1649263, “In vitro activity of a new quinoline derivative, ER-2, against clinical isolates of Mycoplasma pneumoniae and Mycoplasma hominis” (2009).
≈ marks a conversion by molar mass, not a printed value.

Assays:
[1] = system: Mycoplasmoides pneumoniae; assay: Antimicrobial activity against Mycoplasma pneumoniae by agar dilution method; type: functional
Metamycoplasma hominis = assay: Antimicrobial activity against Mycoplasma hominis by agar dilution method; type: functional

CN1C(=O)C2CC3C4Nc5ccc(Cl)cc5C(C)(C)C4CN3C2N(C)C1=O (stereo not given)
MIC [1]: 0.001 µg/mL (≈ 0.00257 µM) | MIC50 [1]: 0.001 µg/mL (≈ 0.00257 µM) | MIC90 [1]: 0.016 µg/mL (≈ 0.0411 µM) | MIC50 (Metamycoplasma hominis): 0.032 µg/mL (≈ 0.0823 µM) | MIC90 (Metamycoplasma hominis): 0.06 µg/mL (≈ 0.154 µM)

CC[C@H]1OC(=O)[C@H](C)[C@@H](O[C@H]2C[C@@](C)(OC)[C@@H](O)[C@H](C)O2)[C@H](C)[C@@H](O[C@@H]2O[C@H](C)C[C@H](N(C)C)[C@H]2O)[C@](C)(O)C[C@@H](C)CN(C)[C@H](C)[C@@H](O)[C@]1(C)O [AZITHROMYCIN]
MIC [1]: 0.001 µg/mL (≈ 0.00134 µM) | MIC50 [1]: 0.001 µg/mL (≈ 0.00134 µM) | MIC90 [1]: 0.016 µg/mL (≈ 0.0214 µM)

O=C(O)c1cn(C2CC2)c2cc(N3CCNCC3)c(F)cc2c1=O [CIPROFLOXACIN]
MIC50 [1]: 4 µg/mL (≈ 12.1 µM) | MIC90 [1]: 4 µg/mL (≈ 12.1 µM) | MIC50 (Metamycoplasma hominis): 1 µg/mL (≈ 3.02 µM) | MIC90 (Metamycoplasma hominis): 1 µg/mL (≈ 3.02 µM)

CCC[C@@H]1C[C@@H](C(=O)N[C@@H]([C@H]2O[C@H](SC)[C@H](O)[C@@H](O)[C@H]2O)[C@H](C)Cl)N(C)C1 [CLINDAMYCIN]
MIC50 (Metamycoplasma hominis): 0.032 µg/mL (≈ 0.0753 µM) | MIC90 (Metamycoplasma hominis): 0.032 µg/mL (≈ 0.0753 µM)

C[C@H]1c2cccc(O)c2C(=O)C2=C(O)[C@]3(O)C(=O)C(C(N)=O)=C(O)[C@@H](N(C)C)[C@@H]3[C@@H](O)[C@@H]21.O [DOXYCYCLINE]
MIC50 [1]: 0.25 µg/mL | MIC90 [1]: 0.25 µg/mL | MIC50 (Metamycoplasma hominis): 2 µg/mL | MIC90 (Metamycoplasma hominis): 2 µg/mL

COc1c(N2CCNC(C)C2)c(F)cc2c(=O)c(C(=O)O)cn(C3CC3)c12 (stereo not given) [GATIFLOXACIN]
MIC50 [1]: 0.125 µg/mL (≈ 0.333 µM) | MIC90 [1]: 0.125 µg/mL (≈ 0.333 µM) | MIC50 (Metamycoplasma hominis): 0.125 µg/mL (≈ 0.333 µM) | MIC90 (Metamycoplasma hominis): 0.125 µg/mL (≈ 0.333 µM)

CO/N=C1\CN(c2nc3c(cc2F)c(=O)c(C(=O)O)cn3C2CC2)CC1CN (stereo not given) [GEMIFLOXACIN]
MIC50 [1]: 0.032 µg/mL (≈ 0.0822 µM) | MIC90 [1]: 0.125 µg/mL (≈ 0.321 µM)

C[C@H]1COc2c(N3CCN(C)CC3)c(F)cc3c(=O)c(C(=O)O)cn1c23.C[C@H]1COc2c(N3CCN(C)CC3)c(F)cc3c(=O)c(C(=O)O)cn1c23.O [LEVOFLOXACIN]
MIC [1]: 0.012 µg/mL | MIC50 [1]: 1 µg/mL | MIC90 [1]: 1 µg/mL | MIC (Metamycoplasma hominis): 0.1 µg/mL | MIC50 (Metamycoplasma hominis): 0.25 µg/mL | MIC90 (Metamycoplasma hominis): 0.5 µg/mL

COc1c(N2C[C@@H]3CCCN[C@@H]3C2)c(F)cc2c(=O)c(C(=O)O)cn(C3CC3)c12 [MOXIFLOXACIN]
MIC [1]: 0.06 µg/mL (≈ 0.149 µM) | MIC50 [1]: 0.06 µg/mL (≈ 0.149 µM) | MIC90 [1]: 0.12 µg/mL (≈ 0.299 µM) | MIC (Metamycoplasma hominis): 0.063 µg/mL (≈ 0.157 µM) | MIC50 (Metamycoplasma hominis): 0.06 µg/mL (≈ 0.149 µM) | MIC90 (Metamycoplasma hominis): 0.06 µg/mL (≈ 0.149 µM)

CN(C)[C@@H]1C(O)=C(C(N)=O)C(=O)[C@@]2(O)C(O)=C3C(=O)c4c(O)cccc4[C@@](C)(O)[C@H]3C[C@@H]12 [TETRACYCLINE]
MIC50 [1]: 1 µg/mL (≈ 2.25 µM) | MIC90 [1]: 1 µg/mL (≈ 2.25 µM) | MIC50 (Metamycoplasma hominis): 8 µg/mL (≈ 18 µM) | MIC90 (Metamycoplasma hominis): 8 µg/mL (≈ 18 µM)
